Where two headings read alike, the source gives them in different places.
Experiments:
[1] = tested on: human acute myeloid leukemia (AML) cell lines, including mutant U2AF1, SRSF2, and SF3B1 cells; details: panel of human AML cell lines incl. mutant U2AF1, SRSF2, SF3B1 cells; cited from earlier work
[2] = Phase I study NCT02841540: plasma pharmacokinetics; type: in vivo, human; details: for Cmax / half-life / AUC(0-t) / Tmax: human, plasma; for Cmax / half-life / AUC(0-t): geometric mean (CV %); for AUC(0-t): read-out: AUC0-24; for Tmax: median
Experimental: (§1) Plasma samples for PK analyses were collected during Cycle 1 on Day 1 and Day 4 (pre-dose and 0.5, 1, 2, 4, 6, 8, 10, and 24 hours post-dose), and pre-dose and 4 hours post-dose on Cycle 1 on Day 15. PK analyses were conducted using Phoenix® VVinNonlin. For pharmacodynamic and biomarker analyses, peripheral blood samples were collected into PAXgene® Blood RNA Tubes (BD Biosciences, San Jose, California) at Cycle 1 Day 1 (pre-dose and 1, 2, 4, 10 and 24 hours post-dose) for all patients. RNA was extracted using Maxwell® simplyRNA Blood Kit (Promega, Madison, Wisconsin). Target engagement (i.e., splicing modulation) was measured by assessing relative expression of representative pre- and mature-mRNA or aberrant and canonical transcripts at post-dose time points comparing to pre-dose, using a customized Nanostring nCounter gene expression panel (NanoString Technologies, Seattle, Washington). For splicing mutation analysis, peripheral blood was collected into PAXgene® Blood DNA Tubes (BD Biosciences, San Jose, California). Baseline splicing mutations were identified using the Focus:Myeloid™ Next Generation Sequencing (NGS) panel determined centrally by Cancer Genetics Inc. (Rutherford, NJ). Biomarker analyses of pretreatment samples were conducted using one-way ANOVA and MedCalc® software. Receiver-Operating-Characteristics (ROC) curves were performed according to the methodology described by Hanley and McNeil (Radiology. 1982;143(1):29-36; see also Zweig and Campbell, Clin Chem. 1993;39(4):561-577).

[3] = tested on: xenograft models of leukemia expressing mutant SF3B1; details: oral administration; cited from earlier work
[4] = Non-human primate toxicity; type: in vivo
[5] = tested on: TMEM14C AJ/CJ ratio and other splicing markers; assay: Phase I study NCT02841540: pharmacodynamics, splicing markers in peripheral blood (Nanostring nCounter panel); type: in vivo, human
Experimental: as §1

[6] = tested on: patients with myelodysplastic syndrome (MDS), chronic myelomonocytic leukemia (CMML), or acute myeloid leukemia (AML); assay: Phase I study NCT02841540: clinical response and transfusion independence; type: in vivo, human
Experimental: Clinical responses were assessed using the 2006 International Working Group (IWG) response criteria for MDS (Cheson et al. Blood. 2006;108:419-425), the IWG 2003 criteria for AML, and the 2015 international consortium proposal of uniform response criteria for myelodysplastic/myeloproliferative neoplasms (MDS/MPN) and CMML (Savona et al. Blood. 2015;125(12):1857-1865). Peripheral blood sampling, bone marrow aspirates, bone marrow biopsies, marrow cytogenetics, and cellular composition by flow cytometry were performed at the time of screening, and after Cycles 1, 2, and 4. Beyond Cycle 4, bone marrow aspirates were performed as clinically indicated based on changes in peripheral blood count, or as needed to establish either complete response or disease progression. An independent central confirmation and interpretation was performed for disease assessments.

[7] = patients who experienced RBC TI
[8] = patient: CMML, IPSS Lower, starting dose 7 mg
[9] = patient: MDS (baseline Hb 9.1 g/dL), IPSS Lower, starting dose 5 mg
[10] = patient: MDS, IPSS Higher, starting dose 2 mg
[11] = patient: MDS, IPSS Higher, starting dose 7 mg
[12] = patient: MDS, IPSS Lower, donor one, starting dose 7 mg
[13] = patient: MDS, IPSS Lower, starting dose 2 mg (7 mg during last two RBC TI periods)
[14] = patient: MDS, IPSS Lower, starting dose 3.5 mg
[15] = patient: MDS/MPN (RARS-T), IPSS Lower, starting dose 2 mg

## C/C(=C\C=C\[C@@H](C)c1ccccn1)[C@H]1OC(=O)C[C@H](O)CC[C@@](C)(O)[C@@H](OC(=O)N2CCN(C)CC2)/C=C/[C@@H]1C [Compound 1, (2S,3S,4E,6S,7R,10R)-7,10-dihydroxy-3,7-dimethyl-12-oxo-2-[(2E,4E,6R)-6-(pyridine-2-yl)hepta-2,4-dien-2-yl]oxacyclododec-4-en-6-yl-4-methylpiperazine-1-carboxylate]
[1]
  growth inhibitory activity: shows growth inhibitory activity
[2]; oral, 1.0 mg once daily
  Cmax: 0.835 ng/mL
  half-life: 5.1 h
  AUC(0-t): 4.89 ng·h/mL
  Tmax: 2 h
[2]; oral, 2.0 mg once daily
  Cmax: 1.09 ng/mL
  half-life: 5.4 h
  AUC(0-t): 8.39 ng·h/mL
  Tmax: 2 h
[2]; oral, 3.5 mg once daily
  Cmax: 2.78 ng/mL
  half-life: 5.4 h
  AUC(0-t): 15.6 ng·h/mL
  Tmax: 1.5 h
[2]; oral, 5.0 mg once daily
  Cmax: 3.94 ng/mL
  half-life: 5.8 h
  AUC(0-t): 24.5 ng·h/mL
  Tmax: 1 h
[2]; oral, 7.0 mg once daily
  Cmax: 9.61 ng/mL
  half-life: 5.3 h
  AUC(0-t): 39.4 ng·h/mL
  Tmax: 1 h
[2]; oral, 10 mg once daily
  Cmax: 12.7 ng/mL
  half-life: 5.5 h
  AUC(0-t): 51 ng·h/mL
  Tmax: 1 h
[2]; oral, 12 mg once daily
  Cmax: 12.2 ng/mL
  half-life: 5.4 h
  AUC(0-t): 64.7 ng·h/mL
  Tmax: 2 h
[2]; oral, 14 mg once daily
  Cmax: 25.6 ng/mL
  half-life: 5.1 h
  AUC(0-t): 108 ng·h/mL
  Tmax: 1 h
[2]; oral, 40 mg once daily
  Cmax: 73.3 ng/mL
  half-life: 4.5 h
  AUC(0-t): 265 ng·h/mL
  Tmax: 0.5 h
[2]; 20 mg once daily
  Cmax: 33.6 ng/mL
  half-life: 5.1 h
  AUC(0-t): 142 ng·h/mL
  Tmax: 0.75 h
[2]; 30 mg once daily
  Cmax: 34.4 ng/mL
  half-life: 5.3 h
  AUC(0-t): 159 ng·h/mL
  Tmax: 1.25 h
[2]; preliminary PK analysis
  absorption: rapidly absorbed
  dose dependence of plasma exposure: dose-proportional increase in plasma exposure
[2]; preliminary population PK modeling
  inter-individual variability on clearance/bioavailability: about 34%
[3]
  in vivo antitumor activity: induces in vivo antitumor activity
[4]
  dose-limiting toxicity (DLT): gastrointestinal distress and colitis
[5]; PBMC samples, NanoString probes, 61 splicing markers
  modulation of splicing markers post-dosing: general modulation of splicing markers post-dosing was observed
[5]; heat map, FIG. 5
  modulation of relative expression of splicing markers: dose-dependent modulation
[5]; [7]
  change of the TMEM14C AJ/CJ ratio with dosing: Downregulation
  time of nadir of the TMEM14C AJ/CJ ratio: 2 to 10 h
[6]; 4 patients with SF3B1 mutations and a diagnosis of AML
  RBC TI periods: No RBC TI periods were observed
[6]; 5 of the 7 MDS patients with pre-treatment TMEM14C AJ/CJ >4.01
  patients who experienced events of RBC TI: 71%
[6]; 5 of the 20 patients with missense SF3B1 mutations at study entry
  patients who experienced RBC TI events: 25%
[6]; 9 of 62 patients transfusion dependent at study entry, as of April 2020, all Schedule I
  patients with intervals of >56 days without RBC transfusions: 15%
[6]; CMML (1 subject)
  RBC TI rate: 25%
[6]; MDS (8 cases)
  RBC TI rate: 19%
[6]; all patients
  complete or partial responses meeting 2006 IWG criteria: No complete or partial responses
[6]; human, in vivo
  Median duration of RBC TI: 13 weeks
  Median time to onset of RBC TI: 15 weeks
  additional RBC TI cases, transfusion dependence prior to study entry not verified: Two additional patients (1 AML, 1 MDS) experienced RBC TI periods of >56 days
[6]; in the 4 subjects with CMML
  clinical benefit (platelet response) (MDS/MPN criteria): 1
  complete cytogenetic remission (MDS/MPN criteria): 1
[6]; of the patients with RBC TI
  patients who experienced RBC TI at the 7 mg dose: Four of the 9
  patients whose first RBC TI initiated in weeks 1-24 of the study: 8 of the 9
[6]; one higher risk MDS patient, 7 mg, Schedule II
  platelet transfusion independence without RBC TI: 22 week
[6]; [8]
  Longest RBC TI Period: 66 days
  Number of RBC TI Periods: 1
  Time to First RBC TI: 4 days
[6]; [9]
  Longest RBC TI Period: 87 days
  Number of RBC TI Periods: 1
  Time to First RBC TI: 398 days
[6]; [10]
  Longest RBC TI Period: 121 days
  Number of RBC TI Periods: 1
  Time to First RBC TI: 126 days
[6]; [11]
  Longest RBC TI Period: 107 days
  Number of RBC TI Periods: 1
  Time to First RBC TI: 104 days
[6]; [12]
  Longest RBC TI Period: 98 days
  Number of RBC TI Periods: 4
  Time to First RBC TI: 73 days
[6]; [13]
  Longest RBC TI Period: 85 days
  Number of RBC TI Periods: 5
  Time to First RBC TI: 88 days
[6]; [14]
  Longest RBC TI Period: 98 days
  Number of RBC TI Periods: 2
  Time to First RBC TI: 101 days
[6]; [15]
  Longest RBC TI Period: 56 days
  Number of RBC TI Periods: 1
  Time to First RBC TI: 111 days
[6]; the CMML patient with RBC TI
  period of platelet transfusion independence: 21 week

Source: patent US20240043928A1, “BIOMARKERS FOR MYELODYSPLASTIC SYNDROME (MDS) AND METHODS OF USING THE SAME” (Eisai R&D Management Co., Ltd., priority 2020, published 2024)
